Data as given in patent US9629850B2, “Combination of MEK inhibitors and selective inhibitors of Aurora A kinase” (priority 2011, dated 2017).
Like-named read-outs stand apart in the source and are kept apart here.

Assays:
A2780 [1] = assay: BrdU proliferation assay, A2780; details: Homo sapiens, A2780, 96 h
Description: (§1) A2780, A375, PC-3, and SK-MeI-2 human tumor cell lines were seeded at 2.0×10^3, 1.0×10^3, 4.0×10^3 and 2.0×10^3 cells per well, respectively, in 80 μL of the appropriate cell culture growth media. Plating densities were chosen to ensure optimal linear growth over 120 hours. After 20 hours, 10 μL of each compound was added to the cells in a matrix with dose responses of both agents. […] Each matrix was generated in triplicate with each replicate on a separate plate.
(§2) Cell proliferation of each cell line was measured using the cell proliferation enzyme-linked immunosorbent assay (ELISA), 5-bromo-2-deoxyuridine (BrdU) colorimetric kit according to the manufacturer's instructions (Roche [Mannheim, Germany]). The assay measures cell proliferation by quantifying BrdU incorporation into replicating deoxyribonucleic acid (DNA). Briefly, each well was incubated with 10 μL of BrdU labeling reagent for 2 hours at 37° C. in a humidified cell culture chamber. After aspiration of the labeling media, the plates were wrapped in foil and kept at 4° C. to assay at a future time. The cells were fixed and denatured by adding 100 µL of ethanol to each well and incubated for 30 minutes at room temperature. The ethanol was aspirated and 50 μl of blocking reagent (Roche [Mannheim, Germany]) was added to the cells and incubated for 30 minutes. 100 μL of peroxidase-conjugated anti BrdU antibody ([anti-BrdU-POD]; 1:100 in antibody dilution buffer) was added to the cells. The cells were incubated with the antibody for 120 minutes at room temperature. The cells were then washed 2× with 150 μL of wash buffer per well and 100 μL of tetramethyl benzidine was then added. The cells were incubated for 15 to 30 minutes at room temperature prior to spectrophotometric analysis. A SpectraMax Plus 384 plate reader (Molecular Devices [Sunny Vale Calif., USA]) or WALLAC 1420 Workstation (Perkin Elmer [Turku, Finland]) were used to measure the absorbance of each well at 395 or 405 nm, respectively, depending on the machine used. The A2780 and A375 cell lines were measured using the SpectraMax Plus at 395 nm, while the PC-3 and SK-Mel-2 cell lines were measured using the WALLAC 1420 Workstation at 405 nm. Analysis of the data was performed using GraphPad Prism 5.0.

A2780 [2] = assay: Cells with greater than 4N DNA by flow cytometry, A2780
Description: (§3) A2780, A375, PC-3 and SK-MEL-2 cells were seeded at 2×10^4 cells/ml and grown on 6 well cell culture dishes overnight at 37° C. with 5% CO2. […] At the relevant time points cells were harvested with trypsin ethylenediaminetetraacetic acid (EDTA) 1× (Gibco/Invitrogen [Carlsbad, Calif., USA]), washed once with phosphate-buffered saline (PBS), fixed in 70% ethanol and stored at −20° C. for at least 24 hours. The cells were washed once more in PBS, then resuspended in 50 μg/ml propidium iodide (Invitrogen, [Carlsbad, Calif., USA]) and 30 μg/ml ribonuclease (RNAse) A (Sigma [St Louis, Mo., USA]) in PBS and incubated for 30 minutes at room temperature protected from light. Cell cycle distributions were determined by measuring deoxyribonucleic acid (DNA) content using flow cytometry on a FACS Canto II flow cytometer (Becton Dickinson [San Jose, Calif., USA]) and samples were analyzed using [sequence] software (Becton Dickinson [San Jose, Calif., USA]).

SKMEL-2 [3] = assay: Cells with greater than 4N DNA by flow cytometry, SKMEL-2
Description: as §3

A2780 cells = assay: Quantification of sub-diploid cells by flow cytometry; details: A2780, 96 hours, single agents: TAK-733 50 nM or 200 nM, MLN8237 20 nM (50 nM MLN8237 sample was the exception), FIG. 2A
Description: Sub-diploid cells were gated as those with a lower level of propidium iodide fluorescence than cells with 2N DNA content.
as §3

SKMEL-2 [4] = assay: BrdU proliferation assay, SKMEL-2; details: Homo sapiens, SK-MEL-2, 96 h
Description: as §1, §2

A375 [5] = assay: Cells with greater than 4N DNA by flow cytometry, A375
Description: as §3

[6] = tested on: Panc-1 Human Pancreatic Carcinoma Xenografts; assay: Antitumor activity in female nude mice bearing Panc-1 xenografts; details: MLN8237 30 mg/kg QD for 21 days (oral per title; b268 prints SC); Day 63; p<0.001 vs vehicle
Description: Experimental Design: Low passage (passage TC08) Panc-1 cells (ATCC, Manassas, Va., USA) were grown in Roswell Park Memorial Institute (RPMI)-1640 (ATCC, Manassas, Va., USA) 10% Fetal Bovine Serum (PAA Laboratories PTY LTD, Morningside, QLD, Australia) and supplied at a concentration of 5.0×10^7 cells/mLl in Dulbecco's phosphate-buffered saline (DPBS) (Invitrogen-Gibco, Grand Island, N.Y., USA). Cells were mixed 1:1 with Matrigel support (BD Biosciences, Bedford, Mass., USA) and 5.0×10^6 Panc-1 cells/animal (0.2 mL injection volume) were implanted SC into the right flank of female Balb/c nude mice.
Tumor growth was monitored twice weekly using calipers and the mean tumor volume was calculated using the formula (0.5×[length×width^2]). […] Tumor size and body weight were measured twice weekly and the study was terminated on Day 63 when tumors in the control group reached approximately 1127.8 mm^3. Tumor volumes and BW of animals in the combination treatment group were monitored up to Day 111.
Antitumor activity was determined by calculating the percent TGI ([mean tumor volume of the control group—mean tumor volume of a treated group]/mean tumor volume of the control group) on Day 63. Treatment started on Day 1 and lasted through Day 21. Maximum percent BWL was evaluated during the treatment period (Day 1-Day 21). […]

PC-3 = assay: BrdU proliferation assay, PC-3; details: Homo sapiens, PC-3, 96 h
Description: as §1, §2

[7] = tested on: NCI-H23 Non Small Cell Lung Carcinoma Xenografts; assay: Anti-tumor activity in female nude mice bearing NCI-H23 xenografts; details: for TGI: Day 99; for TFS (tumor-free survivors): Day 135, n=8
Description: MLN8237 was prepared in 10% hydroxypropyl-beta-cyclodextrin (HP-β-CD) (Sigma, St. Louis, Mo., USA)+1% NaHCO3 (Sigma, St. Louis, Mo., USA) every 5 days and stored at approximately 25° C. in the dark.
5.0×10^6 NCI-H23 cells/animal (0.1 ml injection volume) were implanted SC into the right flank of Balb/c nude mice.
Experimental Design: 7-9 week old female Balb/c nude mice were inoculated subcutaneously in the flank (cell suspension) with 5.0×10^6 NCI-H23 cells. Tumor growth was monitored with vernier calipers. The mean tumor volume was calculated using the formula V=W^2×L/2. When the mean tumor volume (MTV) reached approximately 105 mm^3, the animals were randomized into 8 treatment groups (n=8/group). […] Tumor growth and body weight were measured twice per week. Tumor growth inhibition and body weight change were calculated on Day 99 of treatment.
Antitumor activity was determined by calculating the percent TGI ([mean tumor volume of the control group−mean tumor volume of a treated group]/mean tumor volume of the control group) on Day 99. Treatment started on Day 1 for 21 days. […] The use of Day 99 allows us to evaluate tumor response and statistically compare the ΔAUC for each group over the regrowth period.
Additional endpoints used to evaluate efficacy were: complete and partial tumor response CR and PR), and the number of tumor-free survivors (TFS) at the end of the study.
Statistical Analysis: Statistical analysis was performed with a linear mixed effects regression model. This model takes into account the differences in trends of tumor growth between control and treated samples. Differences among mice were treated as random effects, and a compound symmetry covariance structure was used to model the variability between repeated tumor measurements on each mouse. Treatment comparisons were performed by using the fitted curves from the model to calculate the changes in the areas under the tumor volume-versus-time curves (ΔAUCs). The significance of the ΔAUC was assessed using permutation testing. P-values <0.05 were considered significant.
The change in AUC relative to the control was calculated for both single agent treatment groups as well as the combination group.

PC3 = assay: Cells with greater than 4N DNA by flow cytometry, PC3
Description: as §3

A375 [8] = assay: BrdU proliferation assay, A375; details: Homo sapiens, A-375, 96 h
Description: as §1, §2

[9] = MLN8237 30 mg/kg PO for 21 days, mice of 8

Structure (SMILES): COc1cc(Nc2ncc3c(n2)-c2ccc(Cl)cc2C(c2c(F)cccc2OC)=NC3)ccc1C(=O)[O-].O.[Na+] [MLN8237]
- IC50 (A2780 [1]; read-out: MLN8237 IC50, A2780, TAK-733 0.0 nM): 43 nM
- IC50 (A2780 [1]; read-out: MLN8237 IC50, A2780, TAK-733 0.64 nM): 34 nM
- IC50 (A2780 [1]; read-out: MLN8237 IC50, A2780, TAK-733 3.2 nM): 29 nM
- IC50 (A2780 [1]; read-out: MLN8237 IC50, A2780, TAK-733 16 nM): 19 nM
- IC50 (A2780 [1]; read-out: MLN8237 IC50, A2780, TAK-733 80 nM): 11 nM
- IC90 (A2780 [1]; read-out: MLN8237 IC90, A2780, TAK-733 0.0 nM): > 5000 nM
- IC90 (A2780 [1]; read-out: MLN8237 IC90, A2780, TAK-733 0.64 nM): > 5000 nM
- IC90 (A2780 [1]; read-out: MLN8237 IC90, A2780, TAK-733 3.2 nM): 288 nM
- IC90 (A2780 [1]; read-out: MLN8237 IC90, A2780, TAK-733 16 nM): 28 nM
- IC90 (A2780 [1]; read-out: MLN8237 IC90, A2780, TAK-733 80 nM): 46 nM
- Percentage of cells with greater than 4N DNA (A2780 [2]; A2780, 24 Hr, DMSO 1.7): 9.6%
- Percentage of cells with greater than 4N DNA (A2780 [2]; A2780, 48 Hr, DMSO 2.2): 13%
- Percentage of cells with greater than 4N DNA (SKMEL-2 [3]; SKMEL-2, 24 Hr, DMSO 3.1): 14.5%
- Percentage of cells with greater than 4N DNA (SKMEL-2 [3]; SKMEL-2, 48 Hr, DMSO 2.7): 36.4%
- percentage of sub-diploid cells relative to DMSO (A2780 cells): neither TAK-733 nor MLN8237 caused appreciable increases
- IC50 (SKMEL-2 [4]; read-out: MLN8237 IC50, SKMEL-2, TAK-733 0.0 nM): 67 nM
- IC50 (SKMEL-2 [4]; read-out: MLN8237 IC50, SKMEL-2, TAK-733 0.01 nM): 66 nM
- IC50 (SKMEL-2 [4]; read-out: MLN8237 IC50, SKMEL-2, TAK-733 0.1 nM): 54 nM
- IC50 (SKMEL-2 [4]; read-out: MLN8237 IC50, SKMEL-2, TAK-733 1 nM): 48 nM
- IC50 (SKMEL-2 [4]; read-out: MLN8237 IC50, SKMEL-2, TAK-733 10 nM): 16 nM
- IC90 (SKMEL-2 [4]; read-out: MLN8237 IC90, SKMEL-2, TAK-733 0.0 nM): > 5000 nM
- IC90 (SKMEL-2 [4]; read-out: MLN8237 IC90, SKMEL-2, TAK-733 0.01 nM): > 5000 nM
- IC90 (SKMEL-2 [4]; read-out: MLN8237 IC90, SKMEL-2, TAK-733 0.1 nM): > 5000 nM
- IC90 (SKMEL-2 [4]; read-out: MLN8237 IC90, SKMEL-2, TAK-733 1 nM): > 5000 nM
- IC90 (SKMEL-2 [4]; read-out: MLN8237 IC90, SKMEL-2, TAK-733 10 nM): 309 nM
- Percentage of cells with greater than 4N DNA (A375 [5]; A375, 24 Hr, DMSO 0.9): 16%
- Percentage of cells with greater than 4N DNA (A375 [5]; A375, 48 Hr, DMSO 1.4): 18.6%
- TGI [6]: −6.4%
- IC50 (PC-3; read-out: MLN8237 IC50, PC-3, TAK-733 0.0 nM): 134 nM
- IC50 (PC-3; read-out: MLN8237 IC50, PC-3, TAK-733 16 nM): 84 nM
- IC50 (PC-3; read-out: MLN8237 IC50, PC-3, TAK-733 80 nM): 93 nM
- IC50 (PC-3; read-out: MLN8237 IC50, PC-3, TAK-733 400 nM): 100 nM
- IC50 (PC-3; read-out: MLN8237 IC50, PC-3, TAK-733 2000 nM): 74 nM
- IC90 (PC-3; read-out: MLN8237 IC90, PC-3, TAK-733 0.0 nM): > 5000 nM
- IC90 (PC-3; read-out: MLN8237 IC90, PC-3, TAK-733 16 nM): > 5000 nM
- IC90 (PC-3; read-out: MLN8237 IC90, PC-3, TAK-733 80 nM): 1060 nM
- IC90 (PC-3; read-out: MLN8237 IC90, PC-3, TAK-733 400 nM): 890 nM
- IC90 (PC-3; read-out: MLN8237 IC90, PC-3, TAK-733 2000 nM): 569 nM
- TGI ([7]; MLN8237 20 mg/kg PO QD for 21 days, p>0.05 vs control): 43.4%
- TFS (tumor-free survivors) ([7]; MLN8237 20 mg/kg PO QD for 21 days): 2
- CR (complete tumor response) ([7]; MLN8237 20 mg/kg PO QD for 21 days, mice of 8): 2 of 8
- TGI ([7]; MLN8237 30 mg/kg PO for 21 days, p<0.05 vs vehicle): 73.3%
- TFS (tumor-free survivors) ([7]; MLN8237 30 mg/kg PO for 21 days): 2
- CR (complete tumor response) [7, 9]: 4 of 8
- PR (partial tumor response) [7, 9]: 4 of 8
- Percentage of cells with greater than 4N DNA (PC3; PC3, 24 Hr, DMSO 10.5): 21%
- Percentage of cells with greater than 4N DNA (PC3; PC3, 48 Hr, DMSO 10.7): 30.5%
- IC50 (A375 [8]; read-out: MLN8237 IC50, A375, TAK-733 0.0 nM): 59 nM
- IC50 (A375 [8]; read-out: MLN8237 IC50, A375, TAK-733 0.0001 nM): 73 nM
- IC50 (A375 [8]; read-out: MLN8237 IC50, A375, TAK-733 0.001 nM): 63 nM
- IC50 (A375 [8]; read-out: MLN8237 IC50, A375, TAK-733 0.01 nM): 58 nM
- IC50 (A375 [8]; read-out: MLN8237 IC50, A375, TAK-733 0.1 nM): 62 nM
- IC50 (A375 [8]; read-out: MLN8237 IC50, A375, TAK-733 1 nM): 65 nM
- IC90 (A375 [8]; read-out: MLN8237 IC90, A375, TAK-733 0.0 nM): 530 nM
- IC90 (A375 [8]; read-out: MLN8237 IC90, A375, TAK-733 0.0001 nM): 554 nM
- IC90 (A375 [8]; read-out: MLN8237 IC90, A375, TAK-733 0.001 nM): 408 nM
- IC90 (A375 [8]; read-out: MLN8237 IC90, A375, TAK-733 0.01 nM): 882 nM
- IC90 (A375 [8]; read-out: MLN8237 IC90, A375, TAK-733 0.1 nM): 325 nM
- IC90 (A375 [8]; read-out: MLN8237 IC90, A375, TAK-733 1 nM): > 5000 nM
